{
  "source": "patent US10266537B2",
  "about": "“3-acetylenyl-pyrazole-pyrimidine derivative, and preparation method therefor and uses thereof” (Si Chuan University, priority 2015, dated 2019)",
  "key": {"[1]": {"test_system": "HBL-1", "test": "cells", "details": "Homo sapiens, HBL1, 72 h, read-out: Proliferation inhibitory activity IC50"}, "[2]": {"test_system": "U87", "test": "Cell proliferation inhibition assay (MTT)", "type": "cell-based", "details": "Homo sapiens, U-87 MG, 72 hours, read-out: Proliferation inhibitory activity IC50", "method": "(§1) The cells were seeded in 96-well plates with 200 μL of cell suspension per well and incubated overnight in a cell culture medium with a cell concentration of 1 2×10^4 cells/mL. The next day, the supernatant was discarded (the suspension cell was centrifuged before it) and the cells were treated with gradient concentrations of the test compound, respectively. […] After 72 hours, add 20 μL of MTT reagent at a concentration of 5 mg/mL per well. After incubation for 2-4 h, the supernatant was discarded and 150 μL of DMSO was added to each well. […] Relative cell proliferation inhibition rate=([MUT]-[MUT])×100%/[MUT]. The experiment was repeated at least 3 times. Experimental data were expressed as mean, data statistics using t test, P<0.05 for the difference was statistically significant."}, "[3]": {"test_system": "MCF-7", "test": "Cell proliferation inhibition assay (MTT)", "type": "cell-based", "details": "Homo sapiens, MCF7, 72 hours, read-out: Proliferation inhibitory activity IC50", "method": "as §1"}, "[4]": {"test_system": "Hela", "test": "Cell proliferation inhibition assay (MTT)", "type": "cell-based", "details": "Homo sapiens, 72 hours, read-out: Proliferation inhibitory activity IC50", "method": "as §1"}, "[5]": {"test_system": "SKBR-3", "test": "Cell proliferation inhibition assay (MTT)", "type": "cell-based", "details": "Homo sapiens, SK-BR-3, 72 hours, read-out: Proliferation inhibitory activity IC50", "method": "as §1"}, "[6]": {"molecular_target": "TrkC(h) (Homo sapiens (Human), UniProt Q16288)", "sequence (Q16288 32-839)": "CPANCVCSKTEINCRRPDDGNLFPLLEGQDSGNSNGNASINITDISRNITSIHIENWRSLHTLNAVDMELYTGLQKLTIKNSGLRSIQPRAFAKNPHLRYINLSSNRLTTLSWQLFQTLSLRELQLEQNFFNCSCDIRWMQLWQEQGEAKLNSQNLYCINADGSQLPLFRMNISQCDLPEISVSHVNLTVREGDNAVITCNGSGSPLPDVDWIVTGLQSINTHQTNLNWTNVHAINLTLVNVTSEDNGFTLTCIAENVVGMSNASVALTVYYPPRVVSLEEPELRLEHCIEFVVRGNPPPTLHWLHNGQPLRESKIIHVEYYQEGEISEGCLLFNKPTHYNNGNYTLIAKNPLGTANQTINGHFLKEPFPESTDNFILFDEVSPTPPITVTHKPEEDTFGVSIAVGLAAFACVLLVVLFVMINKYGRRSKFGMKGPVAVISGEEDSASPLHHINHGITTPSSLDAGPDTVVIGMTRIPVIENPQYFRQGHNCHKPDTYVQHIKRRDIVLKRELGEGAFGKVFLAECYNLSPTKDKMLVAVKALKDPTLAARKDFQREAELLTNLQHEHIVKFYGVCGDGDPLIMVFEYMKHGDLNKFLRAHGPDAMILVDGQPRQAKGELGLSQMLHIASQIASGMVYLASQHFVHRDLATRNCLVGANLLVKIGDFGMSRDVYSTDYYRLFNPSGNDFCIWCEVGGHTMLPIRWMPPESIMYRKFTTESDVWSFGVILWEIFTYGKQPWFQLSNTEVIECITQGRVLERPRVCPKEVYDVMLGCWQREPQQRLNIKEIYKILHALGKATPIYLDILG", "test": "Kinase inhibition assay (KinaseProfiler, 33P-ATP)", "type": "biochemical", "details": "read-out: The percentage of the remaining active protein"}, "[7]": {"molecular_target": "SRPK2(h) (Homo sapiens (Human), UniProt P78362)", "test": "Kinase inhibition assay (KinaseProfiler, 33P-ATP)", "type": "biochemical", "details": "read-out: The percentage of the remaining active protein"}, "[8]": {"molecular_target": "MELK(h) (Homo sapiens (Human), UniProt Q14680)", "sequence (Q14680 whole entry)": "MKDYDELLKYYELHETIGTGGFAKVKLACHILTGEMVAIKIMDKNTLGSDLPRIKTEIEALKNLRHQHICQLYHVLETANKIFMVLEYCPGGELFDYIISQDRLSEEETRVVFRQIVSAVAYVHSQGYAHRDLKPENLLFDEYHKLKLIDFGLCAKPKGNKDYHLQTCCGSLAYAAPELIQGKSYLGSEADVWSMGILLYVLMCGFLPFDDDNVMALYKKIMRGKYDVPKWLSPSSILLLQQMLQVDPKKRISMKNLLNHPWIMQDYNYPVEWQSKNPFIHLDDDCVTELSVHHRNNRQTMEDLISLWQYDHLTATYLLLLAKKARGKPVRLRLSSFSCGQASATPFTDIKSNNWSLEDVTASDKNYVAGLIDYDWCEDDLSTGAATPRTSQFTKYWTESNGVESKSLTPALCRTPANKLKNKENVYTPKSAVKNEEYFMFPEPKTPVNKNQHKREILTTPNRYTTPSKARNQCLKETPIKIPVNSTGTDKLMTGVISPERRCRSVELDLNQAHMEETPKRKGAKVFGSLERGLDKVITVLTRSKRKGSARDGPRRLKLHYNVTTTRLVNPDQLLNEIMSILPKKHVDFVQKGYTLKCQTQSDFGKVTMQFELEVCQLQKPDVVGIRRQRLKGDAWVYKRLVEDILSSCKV", "test": "Kinase inhibition assay (KinaseProfiler, 33P-ATP)", "type": "biochemical", "details": "read-out: The percentage of the remaining active protein"}, "[9]": {"molecular_target": "MLK1(h) (Homo sapiens (Human), UniProt P80192)", "test": "Kinase inhibition assay (KinaseProfiler, 33P-ATP)", "type": "biochemical", "details": "read-out: The percentage of the remaining active protein"}, "[10]": {"molecular_target": "EGFR(L858R)(h) (Homo sapiens (Human), UniProt P00533, L858R)", "test": "Kinase inhibition assay (KinaseProfiler, 33P-ATP)", "type": "biochemical", "details": "read-out: The percentage of the remaining active protein"}, "[11]": {"molecular_target": "LTK(h) (Homo sapiens (Human), UniProt P29376)", "test": "Kinase inhibition assay (KinaseProfiler, 33P-ATP)", "type": "biochemical", "details": "read-out: The percentage of the remaining active protein"}, "[12]": {"molecular_target": "Hck (Homo sapiens (Human), UniProt P08631)", "test": "Kinase inhibition assay (KinaseProfiler, 33P-ATP)", "type": "biochemical", "details": "Hck(h); 10 μM; read-out: The percentage of the remaining active protein"}, "[13]": {"molecular_target": "mTOR/FKBP12(h) (Homo sapiens (Human), UniProt P42345)", "test": "Kinase inhibition assay (KinaseProfiler, 33P-ATP)", "type": "biochemical", "details": "read-out: The percentage of the remaining active protein"}, "[14]": {"molecular_target": "Met(Y1248D)(h) (Homo sapiens (Human), UniProt P08581, Y1248D)", "test": "Kinase inhibition assay (KinaseProfiler, 33P-ATP)", "type": "biochemical", "details": "read-out: The percentage of the remaining active protein"}, "[15]": {"molecular_target": "TGFBR1(h) (Homo sapiens (Human), UniProt P36897)", "test": "Kinase inhibition assay (KinaseProfiler, 33P-ATP)", "type": "biochemical", "details": "read-out: The percentage of the remaining active protein"}, "[16]": {"molecular_target": "ALK4(h) (Homo sapiens (Human), UniProt P36896)", "test": "Kinase inhibition assay (KinaseProfiler, 33P-ATP)", "type": "biochemical", "details": "read-out: The percentage of the remaining active protein"}, "[17]": {"molecular_target": "Met(D1246N)(h) (Homo sapiens (Human), UniProt P08581, D1246N)", "sequence (P08581 other isoform, or with tags, fused parts or gaps D1246N)": "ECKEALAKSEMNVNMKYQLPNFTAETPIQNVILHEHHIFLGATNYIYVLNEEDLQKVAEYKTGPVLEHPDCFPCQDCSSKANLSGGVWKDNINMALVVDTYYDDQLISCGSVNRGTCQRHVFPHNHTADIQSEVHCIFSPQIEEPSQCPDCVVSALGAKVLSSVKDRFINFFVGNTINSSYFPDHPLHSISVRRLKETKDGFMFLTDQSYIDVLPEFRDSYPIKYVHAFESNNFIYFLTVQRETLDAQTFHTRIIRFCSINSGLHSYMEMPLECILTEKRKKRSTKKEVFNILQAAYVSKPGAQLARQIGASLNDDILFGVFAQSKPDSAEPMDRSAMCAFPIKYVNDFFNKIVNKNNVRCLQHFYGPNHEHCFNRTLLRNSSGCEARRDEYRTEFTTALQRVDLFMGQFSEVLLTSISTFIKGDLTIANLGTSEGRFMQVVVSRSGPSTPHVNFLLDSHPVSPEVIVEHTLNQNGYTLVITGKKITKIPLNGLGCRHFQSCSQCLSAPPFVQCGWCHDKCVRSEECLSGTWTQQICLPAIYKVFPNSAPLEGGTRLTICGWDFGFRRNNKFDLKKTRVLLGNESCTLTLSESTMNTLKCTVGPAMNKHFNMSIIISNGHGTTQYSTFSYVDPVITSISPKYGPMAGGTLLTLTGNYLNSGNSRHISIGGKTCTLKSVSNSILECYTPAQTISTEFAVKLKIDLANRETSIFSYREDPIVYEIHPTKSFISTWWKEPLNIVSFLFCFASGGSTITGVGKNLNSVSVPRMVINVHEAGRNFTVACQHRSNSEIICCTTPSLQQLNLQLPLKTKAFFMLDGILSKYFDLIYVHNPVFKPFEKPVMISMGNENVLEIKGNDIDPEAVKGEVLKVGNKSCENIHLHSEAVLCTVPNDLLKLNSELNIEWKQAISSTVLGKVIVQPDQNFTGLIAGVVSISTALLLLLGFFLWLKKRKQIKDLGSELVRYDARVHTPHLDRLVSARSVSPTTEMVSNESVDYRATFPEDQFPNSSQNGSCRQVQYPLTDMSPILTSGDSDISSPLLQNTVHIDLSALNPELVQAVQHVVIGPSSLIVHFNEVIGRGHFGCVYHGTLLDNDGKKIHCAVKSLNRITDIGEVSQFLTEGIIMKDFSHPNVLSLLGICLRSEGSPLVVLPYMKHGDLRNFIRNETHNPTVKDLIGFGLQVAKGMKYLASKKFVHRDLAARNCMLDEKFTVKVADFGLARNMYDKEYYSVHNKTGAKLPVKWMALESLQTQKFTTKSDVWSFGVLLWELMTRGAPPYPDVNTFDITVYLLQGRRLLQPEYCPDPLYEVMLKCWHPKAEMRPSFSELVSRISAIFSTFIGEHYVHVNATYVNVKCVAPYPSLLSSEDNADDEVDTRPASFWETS", "test": "Kinase inhibition assay (KinaseProfiler, 33P-ATP)", "type": "biochemical", "details": "read-out: The percentage of the remaining active protein"}, "[18]": {"molecular_target": "PI3 Kinase (p110a/p85a)(m) (Mus musculus (Mouse), UniProt P42337)", "test": "Kinase inhibition assay (KinaseProfiler, 33P-ATP)", "type": "biochemical", "details": "read-out: The percentage of the remaining active protein"}, "[19]": {"molecular_target": "PDGFRβ(h) (Homo sapiens (Human), UniProt P09619)", "test": "Kinase inhibition assay (KinaseProfiler, 33P-ATP)", "type": "biochemical", "details": "read-out: The percentage of the remaining active protein"}, "[20]": {"molecular_target": "Met(D1246H)(h) (Homo sapiens (Human), UniProt P08581, D1246H)", "sequence (P08581 other isoform, or with tags, fused parts or gaps D1246H)": "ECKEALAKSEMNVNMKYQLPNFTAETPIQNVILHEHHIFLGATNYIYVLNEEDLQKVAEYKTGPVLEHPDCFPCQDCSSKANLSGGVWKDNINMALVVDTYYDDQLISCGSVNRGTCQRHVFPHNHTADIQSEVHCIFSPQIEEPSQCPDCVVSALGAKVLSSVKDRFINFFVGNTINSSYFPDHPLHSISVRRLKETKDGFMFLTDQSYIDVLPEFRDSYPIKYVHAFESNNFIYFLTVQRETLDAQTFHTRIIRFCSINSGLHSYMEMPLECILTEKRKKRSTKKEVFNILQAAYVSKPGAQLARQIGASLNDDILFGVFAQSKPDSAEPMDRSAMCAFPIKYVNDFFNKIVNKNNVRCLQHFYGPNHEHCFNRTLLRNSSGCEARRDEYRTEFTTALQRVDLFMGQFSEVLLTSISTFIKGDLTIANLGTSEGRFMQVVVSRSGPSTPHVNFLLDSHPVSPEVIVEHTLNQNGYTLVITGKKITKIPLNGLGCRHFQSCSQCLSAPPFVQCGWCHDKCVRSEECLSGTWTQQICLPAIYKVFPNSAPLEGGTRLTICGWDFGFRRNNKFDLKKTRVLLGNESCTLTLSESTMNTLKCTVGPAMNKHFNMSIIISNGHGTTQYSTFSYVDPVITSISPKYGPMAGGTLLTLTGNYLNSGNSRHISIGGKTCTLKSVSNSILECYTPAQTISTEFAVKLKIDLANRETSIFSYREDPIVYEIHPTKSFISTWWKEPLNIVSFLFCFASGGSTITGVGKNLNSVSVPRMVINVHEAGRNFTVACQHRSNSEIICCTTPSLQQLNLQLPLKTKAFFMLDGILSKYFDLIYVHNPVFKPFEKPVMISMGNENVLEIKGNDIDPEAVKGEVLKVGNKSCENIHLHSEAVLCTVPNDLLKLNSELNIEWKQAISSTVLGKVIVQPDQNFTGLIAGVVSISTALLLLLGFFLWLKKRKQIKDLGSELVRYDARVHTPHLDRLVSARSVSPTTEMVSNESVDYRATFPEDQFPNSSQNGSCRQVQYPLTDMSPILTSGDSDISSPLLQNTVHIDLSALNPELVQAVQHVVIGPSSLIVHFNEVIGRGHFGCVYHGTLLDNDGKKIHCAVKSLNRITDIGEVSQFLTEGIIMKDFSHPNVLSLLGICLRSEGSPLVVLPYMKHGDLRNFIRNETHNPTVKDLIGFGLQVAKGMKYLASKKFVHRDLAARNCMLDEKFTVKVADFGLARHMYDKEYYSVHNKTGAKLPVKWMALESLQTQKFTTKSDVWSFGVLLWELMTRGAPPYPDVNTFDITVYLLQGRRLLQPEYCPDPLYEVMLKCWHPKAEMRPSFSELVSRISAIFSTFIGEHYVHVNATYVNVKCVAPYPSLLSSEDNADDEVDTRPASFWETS", "test": "Kinase inhibition assay (KinaseProfiler, 33P-ATP)", "type": "biochemical", "details": "read-out: The percentage of the remaining active protein"}, "[21]": {"molecular_target": "PDGFRα (V561D) (Homo sapiens (Human), UniProt P16234, V561D)", "test": "Kinase inhibition assay (KinaseProfiler, 33P-ATP)", "type": "biochemical", "details": "PDGFRα(V561D)(h), read-out: The percentage of the remaining active protein"}, "[22]": {"molecular_target": "Abl (Q252H)(h) (Homo sapiens (Human), UniProt P00519, Q252H)", "test": "Kinase inhibition assay (KinaseProfiler, 33P-ATP)", "type": "biochemical", "details": "read-out: The percentage of the remaining active protein"}, "[23]": {"molecular_target": "GCK(h) (Homo sapiens (Human), UniProt Q12851)", "test": "Kinase inhibition assay (KinaseProfiler, 33P-ATP)", "type": "biochemical", "details": "read-out: The percentage of the remaining active protein"}, "[24]": {"molecular_target": "HIPK3(h) (Homo sapiens (Human), UniProt Q9H422)", "test": "Kinase inhibition assay (KinaseProfiler, 33P-ATP)", "type": "biochemical", "details": "read-out: The percentage of the remaining active protein"}, "[25]": {"molecular_target": "SAPK4(h) (Homo sapiens (Human), UniProt O15264)", "test": "Kinase inhibition assay (KinaseProfiler, 33P-ATP)", "type": "biochemical", "details": "read-out: The percentage of the remaining active protein"}, "[26]": {"molecular_target": "CK1γ1(h) (Homo sapiens (Human), UniProt Q9HCP0)", "test": "Kinase inhibition assay (KinaseProfiler, 33P-ATP)", "type": "biochemical", "details": "read-out: The percentage of the remaining active protein"}, "[27]": {"molecular_target": "GCN2(h) (Homo sapiens (Human), UniProt Q9P2K8)", "test": "Kinase inhibition assay (KinaseProfiler, 33P-ATP)", "type": "biochemical", "details": "read-out: The percentage of the remaining active protein"}, "[28]": {"molecular_target": "PKG1β(h) (Homo sapiens (Human), UniProt Q13976)", "test": "Kinase inhibition assay (KinaseProfiler, 33P-ATP)", "type": "biochemical", "details": "read-out: The percentage of the remaining active protein"}, "[29]": {"molecular_target": "Hck(h) activated (Homo sapiens (Human), UniProt P08631)", "test": "Kinase inhibition assay (KinaseProfiler, 33P-ATP)", "type": "biochemical", "details": "read-out: The percentage of the remaining active protein"}, "[30]": {"molecular_target": "FGFR4(h) (Homo sapiens (Human), UniProt P22455)", "test": "Kinase inhibition assay (KinaseProfiler, 33P-ATP)", "type": "biochemical", "details": "read-out: The percentage of the remaining active protein"}, "[31]": {"molecular_target": "PKD2(h) (Homo sapiens (Human), UniProt Q9BZL6)", "sequence (Q9BZL6 whole entry)": "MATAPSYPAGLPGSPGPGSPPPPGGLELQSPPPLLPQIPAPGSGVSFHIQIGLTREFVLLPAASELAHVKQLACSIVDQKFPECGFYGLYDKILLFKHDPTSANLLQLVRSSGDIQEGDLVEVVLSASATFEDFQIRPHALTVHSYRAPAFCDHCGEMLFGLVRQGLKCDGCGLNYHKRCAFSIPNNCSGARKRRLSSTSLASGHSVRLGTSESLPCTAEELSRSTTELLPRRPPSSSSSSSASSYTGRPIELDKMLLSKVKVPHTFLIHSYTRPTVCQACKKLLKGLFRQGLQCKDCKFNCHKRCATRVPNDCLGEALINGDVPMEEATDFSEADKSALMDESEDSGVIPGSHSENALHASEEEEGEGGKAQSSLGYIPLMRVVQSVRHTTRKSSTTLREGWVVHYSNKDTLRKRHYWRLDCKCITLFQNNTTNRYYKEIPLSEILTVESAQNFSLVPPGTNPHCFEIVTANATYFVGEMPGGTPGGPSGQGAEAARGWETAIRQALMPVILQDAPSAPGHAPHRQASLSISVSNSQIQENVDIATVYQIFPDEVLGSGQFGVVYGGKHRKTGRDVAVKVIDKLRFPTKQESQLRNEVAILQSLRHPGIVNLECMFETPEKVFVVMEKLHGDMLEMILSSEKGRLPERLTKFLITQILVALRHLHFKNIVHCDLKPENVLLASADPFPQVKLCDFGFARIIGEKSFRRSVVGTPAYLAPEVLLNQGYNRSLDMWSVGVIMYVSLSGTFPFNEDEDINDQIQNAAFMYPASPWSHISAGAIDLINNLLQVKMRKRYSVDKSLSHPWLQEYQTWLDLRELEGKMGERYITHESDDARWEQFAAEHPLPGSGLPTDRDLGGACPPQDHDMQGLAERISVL", "test": "Kinase inhibition assay (KinaseProfiler, 33P-ATP)", "type": "biochemical", "details": "read-out: The percentage of the remaining active protein"}, "[32]": {"molecular_target": "PI3 Kinase (p110a(E542K)/p85a)(h) (Homo sapiens (Human), UniProt P42336, E542K)", "test": "Kinase inhibition assay (KinaseProfiler, 33P-ATP)", "type": "biochemical", "details": "read-out: The percentage of the remaining active protein"}, "[33]": {"molecular_target": "PI3 Kinase (p110a/p65a)(h) (Homo sapiens (Human), UniProt P42336)", "test": "Kinase inhibition assay (KinaseProfiler, 33P-ATP)", "type": "biochemical", "details": "read-out: The percentage of the remaining active protein"}, "[34]": {"molecular_target": "PKCδ(h) (Homo sapiens (Human), UniProt Q05655)", "test": "Kinase inhibition assay (KinaseProfiler, 33P-ATP)", "type": "biochemical", "details": "read-out: The percentage of the remaining active protein"}, "[35]": {"molecular_target": "AMPKα1(h) (Homo sapiens (Human), UniProt Q13131)", "test": "Kinase inhibition assay (KinaseProfiler, 33P-ATP)", "type": "biochemical", "details": "read-out: The percentage of the remaining active protein"}},
  "data": [
    {"smiles": "CCn1nc(C#Cc2cc(C(=O)Nc3ccc(CN4CCN(C)CC4)c(C(F)(F)F)c3)ccc2C)c2c(N)ncnc21", "note": "[Compound 3]", "values": [
      {"measurement": "IC50", "setting": "[1]", "value": "~10", "unit": "µM"}
    ]},
    {"smiles": "Cc1ccc(NC(=O)c2cccc(C(F)(F)F)c2)cc1C#Cc1nn(C2CCN(C)CC2)c2ncnc(N)c12", "note": "[Compound 31]", "values": [
      {"measurement": "IC50", "setting": "[2]", "value": 5.42, "unit": "µM"},
      {"measurement": "IC50", "setting": "[3]", "value": 1.99, "unit": "µM"},
      {"measurement": "IC50", "setting": "[4]", "value": 7.23, "unit": "µM"},
      {"measurement": "IC50", "setting": "[5]", "value": 1.27, "unit": "µM"}
    ]},
    {"smiles": "Cc1ccc(NC(=O)c2ccc(C)c(C(F)(F)F)c2)cc1C#Cc1nn([C@H]2CC[C@H](O)CC2)c2ncnc(N)c12", "note": "[Compound 93]", "values": [
      {"measurement": "remaining activity at 10 µM", "setting": "[6]", "value": 17, "unit": "%"},
      {"measurement": "remaining activity at 10 µM", "setting": "[7]", "value": 107, "unit": "%"},
      {"measurement": "remaining activity at 10 µM", "setting": "[8]", "value": 23, "unit": "%"},
      {"measurement": "remaining activity at 10 µM", "setting": "[9]", "value": 7, "unit": "%"},
      {"measurement": "remaining activity at 10 µM", "setting": "[10]", "value": 21, "unit": "%"},
      {"measurement": "remaining activity at 10 µM", "setting": "[11]", "value": 73, "unit": "%"},
      {"measurement": "remaining activity at 10 µM", "setting": "[12]", "value": 0, "unit": "%"},
      {"measurement": "remaining activity at 10 µM", "setting": "[13]", "value": 119, "unit": "%"},
      {"measurement": "remaining activity at 10 µM", "setting": "[14]", "value": 105, "unit": "%"},
      {"measurement": "remaining activity at 10 µM", "setting": "[15]", "value": 105, "unit": "%"},
      {"measurement": "remaining activity at 10 µM", "setting": "[16]", "value": 79, "unit": "%"},
      {"measurement": "remaining activity at 10 µM", "setting": "[17]", "value": 103, "unit": "%"},
      {"measurement": "remaining activity at 10 µM", "setting": "[18]", "value": 90, "unit": "%"},
      {"measurement": "remaining activity at 10 µM", "setting": "[19]", "value": 87, "unit": "%"},
      {"measurement": "remaining activity at 10 µM", "setting": "[20]", "value": 124, "unit": "%"},
      {"measurement": "remaining activity at 10 µM", "setting": "[21]", "value": 0, "unit": "%"},
      {"measurement": "remaining activity at 10 µM", "setting": "[22]", "value": 2, "unit": "%"},
      {"measurement": "remaining activity at 10 µM", "setting": "[23]", "value": 49, "unit": "%"},
      {"measurement": "remaining activity at 10 µM", "setting": "[24]", "value": 81, "unit": "%"},
      {"measurement": "remaining activity at 10 µM", "setting": "[25]", "value": 80, "unit": "%"},
      {"measurement": "remaining activity at 10 µM", "setting": "[26]", "value": 83, "unit": "%"},
      {"measurement": "remaining activity at 10 µM", "setting": "[27]", "value": 50, "unit": "%"},
      {"measurement": "remaining activity at 10 µM", "setting": "[28]", "value": 115, "unit": "%"},
      {"measurement": "remaining activity at 10 µM", "setting": "[29]", "value": -1, "unit": "%"},
      {"measurement": "remaining activity at 10 µM", "setting": "[30]", "value": 33, "unit": "%"},
      {"measurement": "remaining activity at 10 µM", "setting": "[31]", "value": 108, "unit": "%"},
      {"measurement": "remaining activity at 10 µM", "setting": "[32]", "value": 85, "unit": "%"},
      {"measurement": "remaining activity at 10 µM", "setting": "[33]", "value": 92, "unit": "%"},
      {"measurement": "remaining activity at 10 µM", "setting": "[34]", "value": 96, "unit": "%"},
      {"measurement": "remaining activity at 10 µM", "setting": "[35]", "value": 109, "unit": "%"}
    ]}
  ]
}
